Data reported in patent US20030087906A1, “NITROGEN SUBSTITUTED BIARYL PURINE DERIVATIVES AS POTENT ANTIPROLIFERATIVE AGENTS” (priority 2001, published 2003).

How the values were obtained:
[1] = system: SNB-75; assay: NCI 60-cell line growth inhibition assay; type: cell-based; conditions: Homo sapiens
[2] = system: 786-0; assay: NCI 60-cell line growth inhibition assay; type: cell-based; conditions: Homo sapiens
[3] = system: T-47D; assay: NCI 60-cell line growth inhibition assay; type: cell-based; conditions: Homo sapiens, T47D
[4] = system: OVCAR-4; assay: NCI 60-cell line growth inhibition assay; type: cell-based; conditions: Homo sapiens
[5] = system: EKVX; assay: NCI 60-cell line growth inhibition assay; type: cell-based; conditions: Homo sapiens
[6] = system: TK-10; assay: NCI 60-cell line growth inhibition assay; type: cell-based; conditions: Homo sapiens; TK-10 (Renal)
[7] = system: NCI/ADR-RES; assay: NCI 60-cell line growth inhibition assay; type: cell-based; conditions: Homo sapiens
[8] = system: SF-539; assay: NCI 60-cell line growth inhibition assay; type: cell-based; conditions: Homo sapiens
[9] = system: NCI-H460; assay: NCI 60-cell line growth inhibition assay; type: cell-based; conditions: Homo sapiens
[10] = system: SNB-19; assay: NCI 60-cell line growth inhibition assay; type: cell-based; conditions: Homo sapiens
[11] = system: NCI-H522; assay: NCI 60-cell line growth inhibition assay; type: cell-based; conditions: Homo sapiens; NCI-H522 (Non-Small Cell Lung)
[12] = system: MOLT-4; assay: NCI 60-cell line growth inhibition assay; type: cell-based; conditions: Homo sapiens
[13] = system: HCC-2998; assay: NCI 60-cell line growth inhibition assay; type: cell-based; conditions: Homo sapiens
[14] = system: SF-295; assay: NCI 60-cell line growth inhibition assay; type: cell-based; conditions: Homo sapiens
[15] = system: COLO 205; assay: NCI 60-cell line growth inhibition assay; type: cell-based; conditions: Homo sapiens
[16] = system: SK-MEL-2; assay: NCI 60-cell line growth inhibition assay; type: cell-based; conditions: Homo sapiens
[17] = system: PC-3; assay: NCI 60-cell line growth inhibition assay; type: cell-based; conditions: Homo sapiens
[18] = system: DU-145; assay: NCI 60-cell line growth inhibition assay; type: cell-based; conditions: Homo sapiens
[19] = system: RPMI-8226; assay: NCI 60-cell line growth inhibition assay; type: cell-based; conditions: Homo sapiens
[20] = system: MDA-N; assay: NCI 60-cell line growth inhibition assay; type: cell-based; conditions: Homo sapiens
[21] = system: MCF7; assay: NCI 60-cell line growth inhibition assay; type: cell-based; conditions: Homo sapiens
[22] = system: NCI-H226; assay: NCI 60-cell line growth inhibition assay; type: cell-based; conditions: Homo sapiens
[23] = system: HOP-92; assay: NCI 60-cell line growth inhibition assay; type: cell-based; conditions: Homo sapiens
[24] = system: HOP-62; assay: NCI 60-cell line growth inhibition assay; type: cell-based; conditions: Homo sapiens
[25] = system: UO-31; assay: NCI 60-cell line growth inhibition assay; type: cell-based; conditions: Homo sapiens
[26] = system: OVCAR-3; assay: NCI 60-cell line growth inhibition assay; type: cell-based; conditions: Homo sapiens
[27] = system: A498; assay: NCI 60-cell line growth inhibition assay; type: cell-based; conditions: Homo sapiens
[28] = system: HT29; assay: NCI 60-cell line growth inhibition assay; type: cell-based; conditions: Homo sapiens, HT-29; HT29 (Colon)
[29] = system: SW-620; assay: NCI 60-cell line growth inhibition assay; type: cell-based; conditions: Homo sapiens; SW-620 (Colon)
[30] = system: UACC-62; assay: NCI 60-cell line growth inhibition assay; type: cell-based; conditions: Homo sapiens
[31] = system: HS 578T; assay: NCI 60-cell line growth inhibition assay; type: cell-based; conditions: Homo sapiens
[32] = system: RXF 393; assay: NCI 60-cell line growth inhibition assay; type: cell-based; conditions: Homo sapiens
[33] = system: LOX IMVI; assay: NCI 60-cell line growth inhibition assay; type: cell-based; conditions: Homo sapiens; LOX IMVI (Melanoma)
[34] = system: SK-MEL-28; assay: NCI 60-cell line growth inhibition assay; type: cell-based; conditions: Homo sapiens
[35] = system: NCI-H322M; assay: NCI 60-cell line growth inhibition assay; type: cell-based; conditions: Homo sapiens
[36] = system: HL-60(TB); assay: NCI 60-cell line growth inhibition assay; type: cell-based; conditions: Homo sapiens; HL-60(TB) (Leukemia)
[37] = system: CCRF-CEM; assay: NCI 60-cell line growth inhibition assay; type: cell-based; conditions: Homo sapiens
[38] = system: NCI-H23; assay: NCI 60-cell line growth inhibition assay; type: cell-based; conditions: Homo sapiens
[39] = system: MDA-MB-231/ATCC; assay: NCI 60-cell line growth inhibition assay; type: cell-based; conditions: Homo sapiens
[40] = system: Tumor Cells in Hollow Fibers; assay: NCI Hollow Fiber Assay (in vivo evaluation); conditions: for IP Score: IP fibers; for SC score: SC fibers
[41] = NCI-H322M (Non-Small Cell Lung)

Cn1cnc2c(NCc3ccccc3)nc(NCCO)nc21 [Olomoucine, reference compound]
GI50 ([1]; SNB-75 (CNS)): 25000 nM | GI50 ([2]; 786-0 (Renal)): 63000 nM | GI50 ([3]; T-47D (Breast)): 63000 nM | GI50 ([4]; OVCAR-4 (Ovarian)): 100000 nM | GI50 ([5]; EKVX (Non-Small Cell Lung)): 100000 nM | GI50 [6]: 63000 nM | GI50 ([7]; NCI/ADR-RES (Breast)): 100000 nM | GI50 ([8]; SF-539 (CNS)): 32000 nM | GI50 ([9]; NCI-H460 (Non-Small Cell Lung)): 63000 nM | GI50 ([10]; SNB-19 (CNS)): 63000 nM | GI50 [11]: 40000 nM | GI50 ([12]; MOLT-4 (Leukemia)): 63000 nM | GI50 ([13]; HCC-2998 (Colon)): 63000 nM | GI50 ([14]; SF-295 (CNS)): 79000 nM | GI50 ([15]; COLO 205 (Colon)): 32000 nM | GI50 ([16]; SK-MEL-2 (Melanoma)): 100000 nM | GI50 ([17]; PC-3 (Prostate)): 100000 nM | GI50 ([18]; DU-145 (Prostate)): 40000 nM | GI50 ([19]; RPMI-8226 (Leukemia)): 50000 nM | GI50 ([20]; MDA-N (Breast)): 79000 nM | GI50 ([21]; MCF7 (Breast)): 50000 nM | GI50 ([22]; NCI-H226 (Non-Small Cell Lung)): 50000 nM | GI50 ([23]; HOP-92 (Non-Small Cell Lung)): 50000 nM | GI50 ([24]; HOP-62 (Non-Small Cell Lung)): 32000 nM | GI50 ([25]; UO-31 (Renal)): 32000 nM | GI50 ([26]; OVCAR-3 (Ovarian)): 79000 nM | GI50 ([27]; A498 (Renal)): 32000 nM | GI50 [28]: 63000 nM | GI50 [29]: 40000 nM | GI50 ([30]; UACC-62 (Melanoma)): 32000 nM | GI50 ([31]; HS 578T (Breast)): 63000 nM | GI50 ([32]; RXF 393 (Renal)): 20000 nM | GI50 [33]: 32000 nM | GI50 ([34]; SK-MEL-28 (Melanoma)): 50000 nM | GI50 [35, 41]: 63000 nM | GI50 [36]: 40000 nM | GI50 ([37]; CCRF-CEM (Leukemia)): 40000 nM | GI50 ([38]; NCI-H23 (Non-Small Cell Lung)): 79000 nM | GI50 ([39]; MDA-MB-231/ATCC (Breast)): 100000 nM

CC(C)n1cnc2c(NCc3ccc(-c4ccsc4)cc3)nc(N[C@H]3CC[C@H](N)CC3)nc21 [Compound 12]
GI50 ([1]; SNB-75 (CNS)): < 5 nM | GI50 ([2]; 786-0 (Renal)): 6.5 nM | GI50 ([3]; T-47D (Breast)): 8.8 nM | GI50 ([4]; OVCAR-4 (Ovarian)): < 5 nM | GI50 ([5]; EKVX (Non-Small Cell Lung)): 23 nM | GI50 [6]: 10 nM | GI50 ([7]; NCI/ADR-RES (Breast)): 1260 nM | GI50 ([8]; SF-539 (CNS)): 22 nM | GI50 ([10]; SNB-19 (CNS)): 16 nM | GI50 [11]: < 5 nM | GI50 ([12]; MOLT-4 (Leukemia)): < 5 nM | GI50 ([13]; HCC-2998 (Colon)): < 5 nM | GI50 ([14]; SF-295 (CNS)): 18 nM | GI50 ([15]; COLO 205 (Colon)): < 5 nM | GI50 ([16]; SK-MEL-2 (Melanoma)): 9.6 nM | GI50 ([17]; PC-3 (Prostate)): < 5 nM | GI50 ([18]; DU-145 (Prostate)): 17 nM | GI50 ([19]; RPMI-8226 (Leukemia)): < 5 nM | GI50 ([20]; MDA-N (Breast)): < 5 nM | GI50 ([21]; MCF7 (Breast)): < 5 nM | GI50 ([22]; NCI-H226 (Non-Small Cell Lung)): 21 nM | GI50 ([23]; HOP-92 (Non-Small Cell Lung)): 11 nM | GI50 ([24]; HOP-62 (Non-Small Cell Lung)): < 5 nM | GI50 ([25]; UO-31 (Renal)): 63 nM | GI50 ([26]; OVCAR-3 (Ovarian)): 12 nM | GI50 ([27]; A498 (Renal)): 16 nM | GI50 [28]: < 5 nM | GI50 [29]: < 5 nM | GI50 ([30]; UACC-62 (Melanoma)): 27 nM | GI50 ([31]; HS 578T (Breast)): < 5 nM | GI50 ([32]; RXF 393 (Renal)): < 5 nM | GI50 [33]: < 5 nM | GI50 ([34]; SK-MEL-28 (Melanoma)): 10 nM | GI50 [35, 41]: < 5 nM | Cell Types Killed [40]: MDA-MB-435 | IP Score [40]: 26 | SC score [40]: 4 | GI50 [36]: < 5 nM | GI50 ([37]; CCRF-CEM (Leukemia)): < 5 nM | GI50 ([38]; NCI-H23 (Non-Small Cell Lung)): < 5 nM | GI50 ([39]; MDA-MB-231/ATCC (Breast)): < 5 nM

CC[C@H](CO)Nc1nc(NCc2ccc(-c3ccccc3)cc2)c2ncn(C(C)C)c2n1 [Compound 73]
GI50 ([1]; CNS, SNB-75): 20 nM | GI50 ([2]; Renal, 786-0): 200 nM | GI50 ([3]; Breast, T-47D): 250 nM | GI50 ([4]; Ovarian, OVCAR-4): 320 nM | GI50 ([5]; Non-Small Cell Lung, EKVX): 250 nM | GI50 ([7]; Breast, NCI/ADR-RES): 400 nM | GI50 ([8]; CNS, SF-539): 760 nM | GI50 ([9]; Non-Small Cell Lung, NCI-H460): 400 nM | GI50 ([10]; CNS, SNB-19): 430 nM | GI50 ([12]; Leukemia, MOLT-4): 320 nM | GI50 ([13]; Colon, HCC-2998): 200 nM | GI50 ([14]; CNS, SF-295): 250 nM | GI50 ([15]; Colon, COLO 205): 280 nM | GI50 ([16]; Melanoma, SK-MEL-2): 630 nM | GI50 ([17]; Prostate, PC-3): 350 nM | GI50 ([18]; Prostate, DU-145): 7080 nM | GI50 ([19]; Leukemia, RPMI-8226): 30 nM | GI50 ([20]; Breast, MDA-N): 130 nM | GI50 ([21]; Breast, MCF7): 160 nM | GI50 ([22]; Non-Small Cell Lung, NCI-H226): 220 nM | GI50 ([23]; Non-Small Cell Lung, HOP-92): 1000 nM | GI50 ([24]; Non-Small Cell Lung, HOP-62): 60 nM | GI50 ([25]; Renal, UO-31): 60 nM | GI50 ([26]; Ovarian, OVCAR-3): 300 nM | GI50 ([27]; Renal, A498): 2880 nM | GI50 ([30]; Melanoma, UACC-62): 300 nM | GI50 ([31]; Breast, HS 578T): 100 nM | GI50 ([32]; Renal, RXF 393): 90 nM | GI50 ([34]; Melanoma, SK-MEL-28): 450 nM | GI50 ([35]; Non-Small Cell Lung, NCI-H322M): 160 nM | IP Score [40]: 2 | SC score [40]: 0 | GI50 ([37]; Leukemia, CCRF-CEM): 250 nM | GI50 ([38]; Non-Small Cell Lung, NCI-H23): 320 nM | GI50 ([39]; Breast, MDA-MB-231/ATCC): 500 nM
